The text below walks through data of patent US20230365553A1, “COMPOUNDS AND COMPOSITIONS FOR TREATING CONDITIONS ASSOCIATED WITH STING ACTIVITY” (IFM Due, Inc., priority 2020, published 2023).

pEC50: −log10 of the molar value.

T1 sequence (Q86WV6 whole entry R71H/G230A/H232R/R293Q): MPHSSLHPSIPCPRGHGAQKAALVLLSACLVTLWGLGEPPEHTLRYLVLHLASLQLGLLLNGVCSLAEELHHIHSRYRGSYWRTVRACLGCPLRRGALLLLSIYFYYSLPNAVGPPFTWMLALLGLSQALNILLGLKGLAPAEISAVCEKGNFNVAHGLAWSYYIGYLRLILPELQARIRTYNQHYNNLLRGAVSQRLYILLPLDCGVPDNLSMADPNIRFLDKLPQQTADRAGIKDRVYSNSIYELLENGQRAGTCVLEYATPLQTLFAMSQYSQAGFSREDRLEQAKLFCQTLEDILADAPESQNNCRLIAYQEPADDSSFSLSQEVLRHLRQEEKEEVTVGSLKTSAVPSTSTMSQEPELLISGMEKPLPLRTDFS

This test concerns the target T1, STING (Homo sapiens, UniProt Q86WV6, G230A/H232R/R293Q/R71H).
T1 construct: host or cells: THP1-Dual KO-IFNAR2 cells
Briefly: STING reporter assay: luciferase reporter activity in THP1-Dual KO-IFNAR2 cells stimulated with 2′3′cGAMP. The format is cell-based. The conditions noted are these: 15 μM 2′3′cGAMP, 24h, read-out: hSTING EC50. As for the experimental part:
STING pathway activation by the compounds described herein was measured using THP 1-Dual™ cells (KO-IFNAR2).
THP1-Dual™ KO-IFNAR2 Cells (obtained from invivogen) were maintained in RPMI, 10% FCS, 5 ml P/S, 2 mM L-glut, 10 mM Hepes, and 1 mM sodium pyruvate. Compounds were spotted in empty 384 well tissue culture plates (Greiner 781182) by Echo for a final concentration of 0.0017-100 μM. Cells were plated into the TC plates at 40 μL per well, 2×10E6 cells/mL. For activation with STING ligand, 2′3′cGAMP (MW 718.38, obtained from Invivogen), was prepared in Optimem media.
The following solutions were prepared for each 1×384 plate: • Solution A: 2 mL Optimem with one of the following stimuli: • 60 μL of 10 mM 2′3′cGAMP→150 μM stock • Solution B: 2 mL Optimem with 60 μL Lipofectamine 2000→Incubate 5 min at RT
2 mL of solution A and 2 ml Solution B was mixed and incubated for 20 min at room temperature (RT). 20 μL of transfection solution (A+B) was added on top of the plated cells, with a final 2′3′cGAMP concentration of 15 μM. The plates were then centrifuged immediately at 340 g for 1 minute, after which they were incubated at 37° C., 5% CO2, >98% humidity for 24h. Luciferase reporter activity was then measured. EC50 values were calculated by using standard methods known in the art.
Luciferase reporter assay: 10 μL of supernatant from the assay was transferred to white 384-plate with flat bottom and squared wells. One pouch of QUANTI-Luc™ Plus was dissolved in 25 mL of water. 100 μL of QLC Stabilizer per 25 mL of QUANTI-Luc™ Plus solution was added. 50 μL of QUANTI-Luc™ Plus/QLC solution per well was then added. Luminescence was measured on a Platereader (e.g., Spectramax I3X (Molecular Devices GF3637001)).
Luciferase reporter activity was then measured. EC50 values were calculated by using standard methods known in the art.
(In a reporter assay the amount or activity of a reporter protein is the signal.)
For the compound `CCc1ccc(-n2cc(-c3ccc4[nH]cc(NC(C)=O)c4c3)cn2)cc1` [Compound 134, N-(5-(1-(4-ethylphenyl)-1H-pyrazol-4-yl)-1H-indol-3-yl)acetamide], the pEC50 – broadly, −log10 of the EC50, conventionally taken in molar units – was 6.70 to 7.40.

As to `CCC(=O)Nc1c[nH]c2ccc(-c3ccc(CN4CCOCC4)s3)cc12` [Compound 135, N-(5-(5-(morpholinomethyl)thiophen-2-yl)-1H-indol-3-yl)propionamide], the pEC50 was 4.00 to 5.30.

Regarding `CCC(=O)Nc1c[nH]c2ccc(-c3cc(C#N)cs3)cc12` [Compound 136, N-(5-(4-cyanothiophen-2-yl)-1H-indol-3-yl)propionamide], the pEC50 was 5.30 to 6.00.

Consider `CCC(=O)Nc1c[nH]c2ccc(-c3cnn(C4CCCC4)c3)cc12` [Compound 137, N-(5-(1-cyclopentyl-1H-pyrazol-4-yl)-1H-indol-3-yl)propionamide], for which the negative logarithm of the EC50 (pEC50) was 4.00 to 5.30.

Consider `CCC(=O)Nc1c[nH]c2ccc(-c3cnn(-c4ccccn4)c3)cc12` [Compound 138, N-(5-(1-(pyridin-2-yl)-1H-pyrazol-4-yl)-1H-indol-3-yl)propionamide], for which the negative logarithm of the EC50 (pEC50) was 4.00 to 5.30.

With `CCC(=O)Nc1c[nH]c2ccc(-c3cnn(-c4ccc(C(F)(F)F)cc4)c3)cc12` [Compound 139, N-(5-(1-(4-(trifluoromethyl)phenyl)-1H-pyrazol-4-yl)-1H-indol-3-yl)propionamide], the pEC50 was 6.00 to 6.70.

`CCC(=O)Nc1c[nH]c2ccc(C3=CCN(c4ccccn4)CC3)cc12` [Compound 140, N-(5-(3,6-dihydro-2H-[1,2′-bipyridin]-4-yl)-1H-indol-3-yl)propionamide]: the pEC50 was 4.00 to 5.30.

`CCC(=O)Nc1c[nH]c2ccc(C3=CCCCC3)cc12` [Compound 141, N-(5-(cyclohex-1-en-1-yl)-1H-indol-3-yl)propionamide]: the pEC50 is 4.00 to 5.30.

Turning to `CCC(=O)Nc1c[nH]c2ccc(-c3ccnn3C)cc12` [Compound 142, N-(5-(1-methyl-1H-pyrazol-5-yl)-1H-indol-3-yl)propionamide], the pEC50 is 5.30 to 6.00.

Take `CCC(=O)Nc1c[nH]c2ccc(-c3ccc(OC(F)(F)F)cc3)cc12` [Compound 143, N-(5-(4-(trifluoromethoxy)phenyl)-1H-indol-3-yl)propionamide]: the negative logarithm of the EC50 (pEC50) is 5.30 to 6.00.

For `CCC(=O)Nc1c[nH]c2ccc(-c3ccc(C4(C#N)CC4)cc3)cc12` [Compound 144, N-(5-(4-(1-cyanocyclopropyl)phenyl)-1H-indol-3-yl)propionamide], the pEC50 is 4.00 to 5.30.

For the compound `CCC(=O)Nc1c[nH]c2ccc(-c3cccc(COC)c3)cc12` [Compound 145, N-(5-(3-(methoxymethyl)phenyl)-1H-indol-3-yl)propionamide], the pEC50 is 4.00 to 5.30.

Regarding `CCC(=O)Nc1c[nH]c2ccc(-c3cccc(C4CC4)c3)cc12` [Compound 146, N-(5-(3-cyclopropylphenyl)-1H-indol-3-yl)propionamide], the pEC50 was 5.30 to 6.00.

In the case of `CCC(=O)Nc1c[nH]c2ccc(-c3ccc(N4CCCC4)nc3)cc12` [Compound 147, N-(5-(6-(pyrrolidin-1-yl)pyridin-3-yl)-1H-indol-3-yl)propionamide], the negative-log EC50 (pEC50) is 4.00 to 5.30.

`CCC(=O)Nc1c[nH]c2ccc(-c3cnn(CC4CC4)c3)cc12` [Compound 148, N-(5-(1-(cyclopropylmethyl)-1H-pyrazol-4-yl)-1H-indol-3-yl)propionamide]: the negative-log EC50 (pEC50) was 4.00 to 5.30.

For `CCC(=O)Nc1c[nH]c2ccc(-c3cnn(-c4cccc(Cl)c4)c3)cc12` [Compound 149, N-(5-(1-(3-chlorophenyl)-1H-pyrazol-4-yl)-1H-indol-3-yl)propionamide], the negative logarithm of the EC50 (pEC50) is 6.00 to 6.70.

For the compound `CCC(=O)Nc1c[nH]c2ccc(-c3cnn(-c4ccccc4)c3)cc12` [Compound 150, N-(5-(1-phenyl-1H-pyrazol-4-yl)-1H-indol-3-yl)propionamide], the pEC50 was 6.00 to 6.70.

Regarding `CCC(=O)Nc1c[nH]c2ccc(-c3cnn(-c4ccc(CC)cc4)c3)cc12` [Compound 151, N-(5-(1-(4-ethylphenyl)-1H-pyrazol-4-yl)-1H-indol-3-yl)propionamide], the negative logarithm of the EC50 (pEC50) is 6.70 to 7.40.

In the case of `CCC(=O)Nc1c[nH]c2ccc(-c3cnn(-c4ccc(CC)cc4)c3)nc12` [Compound 164, N-(5-(1-(4-ethylphenyl)-1H-pyrazol-4-yl)-1H-pyrrolo[3,2-b]pyridin-3-yl)propionamide], the pEC50 was 4.00 to 5.30.

In the case of `CCc1ccc(-n2cc(-c3ccc4[nH]cc(NC(=O)C5CCCCO5)c4c3)cn2)cc1` (centres unmarked) [Compound 165, N-(5-(1-(4-ethylphenyl)-1H-pyrazol-4-yl)-1H-indol-3-yl)tetrahydro-2H-pyran-2-carboxamide], the pEC50 is 6.00 to 6.70.

Consider `CCc1ccc(-n2cc(-c3ccc4[nH]cc(NC(=O)C(O)C(F)(F)F)c4c3)cn2)cc1` (centres unmarked) [Compound 166, N-(5-(1-(4-ethylphenyl)-1H-pyrazol-4-yl)-1H-indol-3-yl)-3,3,3-trifluoro-2-hydroxypropanamide], for which the pEC50 was 5.30 to 6.00.

Take `CC(=O)Nc1c[nH]c2ccc(-c3cnn(-c4ccc(CC(F)(F)F)cc4)c3)cc12` [Compound 167, N-(5-(1-(4-(2,2,2-trifluoroethyl)phenyl)-1H-pyrazol-4-yl)-1H-indol-3-yl)acetamide]: the pEC50 is 6.70 to 7.40.

Consider `CC(=O)Nc1c[nH]c2ccc(-c3cnn(-c4ccc(Cl)c(Cl)c4)c3)cc12` [Compound 168, N-(5-(1-(3,4-dichlorophenyl)-1H-pyrazol-4-yl)-1H-indol-3-yl)acetamide], for which the pEC50 is 6.00 to 6.70.

As for `CC(=O)Nc1c[nH]c2ccc(-c3cnn(-c4ccc(C5CC(F)(F)C5)c(Cl)c4)c3)cc12` [Compound 169, N-(5-(1-(3-chloro-4-(3,3-difluorocyclobutyl)phenyl)-1H-pyrazol-4-yl)-1H-indol-3-yl)acetamide], the pEC50 was 6.00 to 6.70.

As for `CC(=O)Nc1c[nH]c2ccc(-c3cnn(-c4ccc(F)c(F)c4)c3)cc12` [Compound 170, N-(5-(1-(3,4-difluorophenyl)-1H-pyrazol-4-yl)-1H-indol-3-yl)acetamide], the pEC50 is 5.30 to 6.00.

Turning to `CC(=O)Nc1c[nH]c2ccc(-c3cnn(-c4ccc(C5(C)CCCCC5)cc4)c3)cc12` [Compound 171, N-(5-(1-(4-(1-methylcyclohexyl)phenyl)-1H-pyrazol-4-yl)-1H-indol-3-yl)acetamide], the pEC50 is 5.30 to 6.00.

Regarding `CC(=O)Nc1c[nH]c2ccc(-c3cnn(-c4ccc(C(F)(F)F)cc4Cl)c3)cc12` [Compound 172, N-(5-(1-(2-chloro-4-(trifluoromethyl)phenyl)-1H-pyrazol-4-yl)-1H-indol-3-yl)acetamide], the pEC50 is 6.70 to 7.40.

On to `CC(C)(O)CC(=O)Nc1c[nH]c2ccc(-c3cnn(-c4ccc(C(F)(F)F)cc4)c3)cc12` [Compound 173, 3-hydroxy-3-methyl-N-(5-(1-(4-(trifluoromethyl)phenyl)-1H-pyrazol-4-yl)-1H-indol-3-yl)butanamide], for which the pEC50 is 6.00 to 6.70.

For `COCC(=O)Nc1c[nH]c2ccc(-c3cnn(-c4ccc(C(F)(F)F)cc4)c3)cc12` [Compound 174, 2-methoxy-N-(5-(1-(4-(trifluoromethyl)phenyl)-1H-pyrazol-4-yl)-1H-indol-3-yl)acetamide], the pEC50 is 6.00 to 6.70.

For the compound `CC(=O)Nc1c[nH]c2ccc(-c3cnn([C@@H](C)c4cccc(C(F)(F)F)c4)c3)cc12` [Compound 175, (S)-N-(5-(1-(1-(3-(trifluoromethyl)phenyl)ethyl)-1H-pyrazol-4-yl)-1H-indol-3-yl)acetamide], the pEC50 is 6.00 to 6.70.

On to `CC(=O)Nc1c[nH]c2ccc(-c3cnn([C@H](C)c4cccc(C(F)(F)F)c4)c3)cc12` [Compound 176, (R)-N-(5-(1-(1-(3-(trifluoromethyl)phenyl)ethyl)-1H-pyrazol-4-yl)-1H-indol-3-yl)acetamide], for which the negative-log EC50 (pEC50) is 6.00 to 6.70.

Regarding `COCCCC(=O)Nc1c[nH]c2ccc(-c3cnn(-c4ccc(C(F)(F)F)cc4)c3)cc12` [Compound 177, 4-methoxy-N-(5-(1-(4-(trifluoromethyl)phenyl)-1H-pyrazol-4-yl)-1H-indol-3-yl)butanamide], the pEC50 is 6.70 to 7.40.

As for `CC(=O)Nc1c[nH]c2ccc(-c3cnn(C(C)c4ccc(C(F)(F)F)cc4)c3)cc12` (centres unmarked) [Compound 178, N-(5-(1-(1-(4-(trifluoromethyl)phenyl)ethyl)-1H-pyrazol-4-yl)-1H-indol-3-yl)acetamide], the pEC50 is 6.00 to 6.70.

Regarding `CC(=O)Nc1c[nH]c2ccc(-c3cnn(C(C)c4cccc(C(F)(F)F)c4)c3)cc12` (centres unmarked) [Compound 179, N-(5-(1-(1-(3-(trifluoromethyl)phenyl)ethyl)-1H-pyrazol-4-yl)-1H-indol-3-yl)acetamide], the pEC50 was 6.00 to 6.70.

Turning to `CC(=O)Nc1c[nH]c2ccc(-c3cnn(Cc4cccc(C(F)(F)F)c4)c3)cc12` [Compound 180, N-(5-(1-(3-(trifluoromethyl)benzyl)-1H-pyrazol-4-yl)-1H-indol-3-yl)acetamide], the pEC50 is 6.00 to 6.70.
